Tests used:
[1] = Vibrating tube method
[2] = refractive index (Na D-line) (dimensionless); details: 298.15 K; 101.33 kPa; Liquid; Standard Abbe refractometry
[3] = xn = mol fraction of the nth substance listed; details: 313.15 K, Fluid (supercritical or subcritical phases), Vibrating tube method

CCCCO [butan-1-ol]
[1], Liquid
Details	mass density [kg/m3]
298.15 K, 101.33 kPa	805.8
313.15 K, 1000 kPa	794.9
313.15 K, 2000 kPa	795.6
313.15 K, 3000 kPa	796.3
313.15 K, 4000 kPa	797
313.15 K, 5000 kPa	797.6
313.15 K, 6000 kPa	798.3
313.15 K, 7000 kPa	798.9
313.15 K, 8000 kPa	799.6
313.15 K, 9000 kPa	800.2
313.15 K, 10000 kPa	800.9

Details	refractive index
[2]	1.3973

CCCCO [butan-1-ol] + O=C=O
[3]
Details	mass density [kg/m3]
1000 kPa, x2 = 0	794.9
2000 kPa, x2 = 0	795.6
2000 kPa, x2 = 0.103	802.2
3000 kPa, x2 = 0	796.3
3000 kPa, x2 = 0.103	803
4000 kPa, x2 = 0	797
4000 kPa, x2 = 0.103	803.8
4000 kPa, x2 = 0.204	810.6
5000 kPa, x2 = 0	797.6
5000 kPa, x2 = 0.103	804.6
5000 kPa, x2 = 0.204	811.6
5000 kPa, x2 = 0.3	817
6000 kPa, x2 = 0	798.3
6000 kPa, x2 = 0.103	805.4
6000 kPa, x2 = 0.204	812.4
6000 kPa, x2 = 0.3	818.1
7000 kPa, x2 = 0	798.9
7000 kPa, x2 = 0.103	806.2
7000 kPa, x2 = 0.204	813.4
7000 kPa, x2 = 0.3	819.1
7000 kPa, x2 = 0.404	825.1
7000 kPa, x2 = 0.503	829.1
8000 kPa, x2 = 0	799.6
8000 kPa, x2 = 0.103	806.9
8000 kPa, x2 = 0.204	814.3
8000 kPa, x2 = 0.3	820.2
8000 kPa, x2 = 0.404	826.5
8000 kPa, x2 = 0.503	830.9
8000 kPa, x2 = 0.6	830.9
8000 kPa, x2 = 0.703	824.9
9000 kPa, x2 = 0	800.2
9000 kPa, x2 = 0.103	807.7
9000 kPa, x2 = 0.204	815.2
9000 kPa, x2 = 0.3	821.2
9000 kPa, x2 = 0.404	827.8
9000 kPa, x2 = 0.503	832.6
9000 kPa, x2 = 0.6	833.4
9000 kPa, x2 = 0.703	829.1
9000 kPa, x2 = 0.802	810.5
9000 kPa, x2 = 0.9	762.6
9000 kPa, x2 = 0.95	704.5
10000 kPa, x2 = 0	800.9
10000 kPa, x2 = 0.103	808.4
10000 kPa, x2 = 0.204	816.1
10000 kPa, x2 = 0.3	822.3
10000 kPa, x2 = 0.404	829.1
10000 kPa, x2 = 0.503	834.3
10000 kPa, x2 = 0.6	835.8
10000 kPa, x2 = 0.703	833.1
10000 kPa, x2 = 0.802	817.8
10000 kPa, x2 = 0.9	779.1
10000 kPa, x2 = 0.95	735.5

O=C=O [carbon dioxide]
[1], 313.15 K, Fluid (supercritical or subcritical phases)
Details	mass density [kg/m3]
1000 kPa	17.9
2000 kPa	37.1
3000 kPa	58.7
4000 kPa	83.5
5000 kPa	112.7
6000 kPa	148.8
7000 kPa	197.3
8000 kPa	276.7
9000 kPa	483.4
10000 kPa	627.4

O=C=O [carbon dioxide] + CCCCO
[3], x1 = 1
Details	mass density [kg/m3]
1000 kPa	17.9
2000 kPa	37.1
3000 kPa	58.7
4000 kPa	83.5
5000 kPa	112.7
6000 kPa	148.8
7000 kPa	197.3
8000 kPa	276.7
9000 kPa	483.4
10000 kPa	627.4

Reference: the NIST ThermoML archive (doi:10.1021/je100788g)
